Target: Nitric oxide synthase 1 (Homo sapiens, UniProt P29475)
Sequence (P29475 whole entry): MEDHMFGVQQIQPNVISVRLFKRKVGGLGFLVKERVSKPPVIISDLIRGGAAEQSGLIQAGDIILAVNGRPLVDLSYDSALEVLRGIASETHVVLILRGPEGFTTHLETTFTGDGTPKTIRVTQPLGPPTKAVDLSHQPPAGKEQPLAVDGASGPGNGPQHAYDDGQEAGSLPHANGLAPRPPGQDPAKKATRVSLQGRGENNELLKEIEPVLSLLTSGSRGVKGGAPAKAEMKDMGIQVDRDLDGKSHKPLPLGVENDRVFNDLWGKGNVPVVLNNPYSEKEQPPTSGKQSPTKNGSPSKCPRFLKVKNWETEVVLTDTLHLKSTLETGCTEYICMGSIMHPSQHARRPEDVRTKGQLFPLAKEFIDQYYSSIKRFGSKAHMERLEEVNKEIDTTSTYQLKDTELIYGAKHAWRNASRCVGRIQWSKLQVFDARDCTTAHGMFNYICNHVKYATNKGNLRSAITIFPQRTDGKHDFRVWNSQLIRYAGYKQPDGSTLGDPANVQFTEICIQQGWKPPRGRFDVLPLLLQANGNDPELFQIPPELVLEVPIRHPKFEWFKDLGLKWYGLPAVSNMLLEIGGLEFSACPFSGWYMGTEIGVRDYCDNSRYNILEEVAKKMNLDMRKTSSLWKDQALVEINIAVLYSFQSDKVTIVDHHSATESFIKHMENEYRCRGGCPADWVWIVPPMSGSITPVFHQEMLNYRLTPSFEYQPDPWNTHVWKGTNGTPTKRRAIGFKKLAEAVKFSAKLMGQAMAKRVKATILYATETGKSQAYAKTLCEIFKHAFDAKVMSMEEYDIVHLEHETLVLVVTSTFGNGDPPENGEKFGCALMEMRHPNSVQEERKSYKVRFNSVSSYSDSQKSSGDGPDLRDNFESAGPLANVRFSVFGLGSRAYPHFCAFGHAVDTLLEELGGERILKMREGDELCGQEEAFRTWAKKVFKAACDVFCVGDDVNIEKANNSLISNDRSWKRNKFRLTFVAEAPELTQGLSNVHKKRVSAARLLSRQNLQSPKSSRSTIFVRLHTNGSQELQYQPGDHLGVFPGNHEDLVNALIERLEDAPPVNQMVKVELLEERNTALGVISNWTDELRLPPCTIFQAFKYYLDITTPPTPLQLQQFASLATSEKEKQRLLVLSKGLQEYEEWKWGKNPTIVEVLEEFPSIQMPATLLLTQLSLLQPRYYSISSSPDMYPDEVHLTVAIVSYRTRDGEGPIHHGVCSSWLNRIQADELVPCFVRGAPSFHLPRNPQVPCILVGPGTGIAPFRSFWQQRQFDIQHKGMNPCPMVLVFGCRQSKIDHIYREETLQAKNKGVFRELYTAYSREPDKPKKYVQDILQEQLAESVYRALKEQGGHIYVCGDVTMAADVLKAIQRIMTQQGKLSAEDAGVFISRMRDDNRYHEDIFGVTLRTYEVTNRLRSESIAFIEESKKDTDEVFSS

`Cc1cc(N)nc(CCc2cc(CCCN(C)C)cc(F)c2F)c1` was tested, and the Ki was 29 nM.

— ChEMBL document CHEMBL4400558, “Optimization of Blood-Brain Barrier Permeability with Potent and Selective Human Neuronal Nitric Oxide Synthase Inhibitors Having a 2-Aminopyridine Scaffold” (J Med Chem, 2019)
